Measured values: patent US20260042746A1, “2(1H)-PYRIDINIMINE DERATIVE” (SUMITOMO PHARMA CO., LTD., priority 2022, published 2026)

Legend:
Type in all cases: cell-based
α-synuclein aggregate [1] = experiment: Test 2: suppressing the accumulation of α-synuclein aggregate in neurospheroid from PLA2G6 mutant human iPS cells; conditions: compound added day 4, measured day 9, DMSO = 100%; for activity at 0.1 µM: 100 nM, read-out: Amount of aggregate (%) 100 nM; for activity at 1 µM: 1000 nM, read-out: Amount of aggregate (%) 1000 nM
Procedure: Test 2: Evaluation of Suppressing the Accumulation of α-Synuclein Aggregate with Neurospheroid Prepared from Human iPS Cells with a Mutation in PLA2G6 Gene
(§1) (1) Induction of Differentiation from Human iPS Cell to Neural Cell
Neural stem cells were induced from PLA2G6 gene mutant iPS cells with PSC Neuronal Induction Medium (Thermo Fisher Scientific Inc., cat #A1647801). Neurospheroid was prepared from the induced neural stem cells by three-dimensional culture system, and preserved with BrainPhys Neuronal Medium (STEMCELL Technologies, cat #ST-05793) comprising NeuroCult SM1 Neuronal Supplement, N2 Supplement-A, 20 ng/mL BDNF, 20 ng/mL GDNF, 1 mM dibutyryl cAMP, and 200 nM ascorbic acid. Half of the culture medium was replaced on day 2 and day 4 after the induction of differentiation.
The test compound was diluted with the culture medium so as to be twice the final concentration, and an equal volume of the twice-concentrated solution was added to each well when half of the culture medium was replaced on day 4 after induction of differentiation.
(§2) (2) Evaluation of the Amount of α-Synuclein Aggregate
(§3) From the neurospheroid 9 days after the induction of differentiation, proteins were extracted with a TBS solution containing 1% TritionX-100, and the extracted proteins were subjected to a protein analysis with Simple Western system (Protein Simple, Inc., cat #SM-W008) using an α-synuclein antibody (Thermo Fisher Scientific Inc., cat #AHB0261) to measure the amount of the α-synuclein aggregate.
Assuming that the amount of the aggregate in the neurospheroid added with a DMSO solution is 100%, the amount of the aggregate in the neurospheroid added with each test compound was evaluated.

α-synuclein aggregate [2] = experiment: Test 3: reducing the accumulation of α-synuclein aggregate in neurospheroid from PLA2G6 mutant human iPS cells; conditions: compound added day 10, measured day 15, DMSO = 100%
Procedure: Test 3: Evaluation of Reducing the Accumulation of α-Synuclein Aggregate with Neurospheroid Prepared from Human iPS Cells with a Mutation in PLA2G6 Gene
as §1
(§4) Neural stem cells were induced from PLA2G6 gene mutant iPS cells with PSC Neuronal Induction Medium (Thermo Fisher Scientific Inc., cat #A1647801). Neurospheroid was prepared from the induced neural stem cells by three-dimensional culture system, and preserved with BrainPhys Neuronal Medium (STEMCELL Technologies, cat #ST-05793) comprising NeuroCult SM1 Neuronal Supplement, N2 Supplement-A, 20 ng/mL BDNF, 20 ng/mL GDNF, 1 mM dibutyryl cAMP, and 200 nM ascorbic acid. Half of the culture medium was replaced every 3 or 4 days after the induction of differentiation.
The test compound was diluted with the culture medium so as to be twice the final concentration, and an equal volume of the twice-concentrated solution was added to each well when half of the culture medium was replaced on day 10 after induction of differentiation.
as §2
as §3, with “15” for “9”
(§5) The amount of the aggregate in the neurospheroid added with each test compound was measured. Assuming that the amount of the aggregate in the neurospheroid added with a DMSO solution is 100%, the amount of the aggregate in the test samples was evaluated.

α-synuclein aggregate [3] = experiment: Test 11: reducing the accumulation of α-synuclein aggregate in dopamine neurospheroid from GBA1 mutant human iPS cells; conditions: compound added day 40, measured day 44, DMSO = 100%
Procedure: Test 11: Evaluation of Reducing the Accumulation of α-Synuclein Aggregate with Dopamine Neurospheroid Prepared From Human iPS Cells with a Mutation in GBA1 Gene
as §1
as §4, with “Dopaminergic progenitor” for “Neural stem”, “GBA1” for “PLA2G6”, “dopaminergic neuron differentiation kit” for “PSC Neuronal Induction Medium”, “#A3147701). Dopamine neurospheroid” for “#A1647801). Neurospheroid”, “dopaminergic progenitor” for “neural stem”, “days.” for “days after the induction of differentiation.”
The test compound was diluted with the culture medium so as to be twice the final concentration, and an equal volume of the twice-concentrated solution was added to each well when half of the culture medium was replaced on day 40 after induction of differentiation.
as §2
as §3, with “From the dopamine neurospheroid 44” for “From the neurospheroid 9”, “dopamine neurospheroid 44 days after” for “the neurospheroid 9 days after”
as §5

α-synuclein aggregate [4] = experiment: Test 5: suppressing the accumulation of α-synuclein aggregate in dopamine neurospheroid from PLA2G6 mutant human iPS cells; conditions: compound added day 21, measured day 26, DMSO = 100%
Procedure: Test 5: Evaluation of Suppressing the Accumulation of α-Synuclein Aggregate with Dopamine Neurospheroid Prepared From Human iPS Cells with a Mutation in PLA2G6 Gene
as §1
as §4, with “Dopaminergic progenitor” for “Neural stem”, “dopaminergic neuron differentiation kit” for “PSC Neuronal Induction Medium”, “#A3147701). Dopamine neurospheroid” for “#A1647801). Neurospheroid”, “dopaminergic progenitor” for “neural stem”
The test compound was diluted with the culture medium so as to be twice the final concentration, and an equal volume of the twice-concentrated solution was added to each well when half of the culture medium was replaced on day 21 after induction of differentiation.
as §2
as §3, with “From the dopamine neurospheroid 26” for “From the neurospheroid 9”, “dopamine neurospheroid 26 days after” for “the neurospheroid 9 days after”
as §5

| Structure (SMILES) | activity at 0.1 µM (α-synuclein aggregate [1]) | activity at 1 µM (α-synuclein aggregate [1]) | Amount of aggregate (%) 100 nM (α-synuclein aggregate [2]) | Amount of aggregate (%) 1000 nM (α-synuclein aggregate [2]) | Amount of aggregate (%) 100 nM (α-synuclein aggregate [3]) | Amount of aggregate (%) 1000 nM (α-synuclein aggregate [3]) | Amount of aggregate (%) 100 nM (α-synuclein aggregate [4]) | Amount of aggregate (%) 1000 nM (α-synuclein aggregate [4]) |
| --- | --- | --- | --- | --- | --- | --- | --- | --- |
| CCC1(C(=O)/N=c2\ccccn2C)COC1 [Example 1, 3-Ethyl-N-[(2E)-1-methylpyridin-2(1H)-ylidene]oxetane-3-carboxamide] | 20% | 21% | 23% | 18% | 12% | 19% | 9% | 13% |
| CCn1cccc/c1=N\C(=O)C1(C)COC1 [Example 3, N-[(2E)-1-ethylpyridin-2(1H)-ylidene]-3-methyloxetane-3-carboxamide] | 35% | 74% | 19% | 70% | 44% | 39% | 28% | 78% |
| COc1ccn(C)/c(=N/C(=O)C2(C)CN(C)C2)c1 [Example 51, N-[(2E)-4-methoxy-1-methylpyridin-2(1H)-ylidene]-1,3-dimethylazetidine-3-carboxamide] | 4% | 9% | 12% | 10% | 16% | 30% | 27% | 31% |
| COc1c/c(=N\C(=O)C2(C)CN(C)C2)n(C)cc1Cl [Example 60, N-[(2E)-5-chloro-4-methoxy-1-methylpyridin-2(1H)-ylidene]-1,3-dimethylazetidine-3-carboxamide] | 44% | 15% | 9% | 9% | – | – | 21% | 15% |
| CCC1(C(=O)/N=c2\cc(OC)ccn2C)COC1 [Example 9, 3-ethyl-N-[(2E)-4-methoxy-1-methylpyridin-2(1H)-ylidene]oxetane-3-carboxamide] | 4% | 3% | 52% | 37% | – | – | 5% | 28% |
| Cn1cccc/c1=N\C(=O)C1(C)COC1 [Example 2, 3-methyl-N-[(2E)-1-methylpyridin-2(1H)-ylidene]oxetane-3-carboxamide] | 31% | 38% | 36% | 35% | 42% | 37% | 24% | 3% |
| CCC1(C(=O)/N=c2\ccc(F)cn2C)COC1 [Example 31, 3-ethyl-N-[(2E)-5-fluoro-1-methylpyridin-2(1H)-ylidene]oxetane-3-carboxamide] | 25% | 53% | 23% | 19% | – | – | 13% | 12% |
| CC(C)N1CC(C)(C(=O)/N=c2\ccccn2C)C1 [Example 71, 3-Methyl-N-[(2E)-1-methylpyridin-2(1H)-ylidene]-1-(propan-2-yl)azetidine-3-carboxamide] | 64% | 73% | – | – | – | – | – | – |
| Cc1ccn(C)/c(=N/C(=O)C2(C)COC2)c1 [Example 4] | 10% | 120% | – | – | – | – | – | – |
